Patent publication US8461175B2, “1-pyrazolo[4,3-c]isoquinoline derivatives, preparation thereof and therapeutic use thereof” (Sanofi-Aventis, priority 2009, dated 2013)

test system: HeLa Cells (ATCC CCL-2); experiment: Determination of IC50 for HeLa cells, proliferation by 14C-thymidine incorporation; format: cell-based; conditions: Homo sapiens, total treatment 96 h
Procedure: Determination of IC50 for HeLa Cells (ATCC CCL-2)
This test is carried out using adherent tumour cell lines. Their proliferation is measured via the amount of ^14C-thymidine incorporated within the cells. These cells are placed in 96-well Cytostar plates with the culture medium and are incubated for 4 h at 37° C.-5% CO2. The products under test are then added and the plates are replaced in the incubator. ^14C-thymidine is added to the medium after 72 h of treatment and the cells are then incubated for 24 h. The incorporation of ^14C-thymidine is measured using a MicroBeta reader (Perkin Elmer) after these 24 h of “pulse”. The total time of treatment of the cells with the product under test is 96 h.
For each assay, the plates are prepared at the cell concentrations employed. The products are tested at 10 concentrations in duplicate. The first concentration is usually 10 μM, but it may vary, as may the degree of dilution, depending on the activity level of the products. The serial dilutions are made in pure DMSO and then each concentration is diluted in the culture medium. All of the products are tested in two independent assays.
• Dulbecco (Gibco 11960-044) • Inactivated foetal calf serum (FCS) (Gibco 10500-056) • Penicillin-Streptomycin-Glutamine (PSG) (Gibco 10378-016) • 96-well Cytostar plate (Amersham RPNQ0162) • DMSO (Sigma D2650) • ^14C-Thymidine (NEN NEC-568)

Compound	IC50 [nM]
CS(=O)(=O)N1CCC(Nc2n[nH]c3c2nc(-c2c(F)cccc2F)c2cc(C=NO)ccc23)CC1 [Example 2, 5-(2,6-difluorophenyl)-3-{[1-(methylsulphonyl)piperidin-4-yl]amino}-1H-pyrazolo[4,3-c]isoquinoline-7-carbaldehyde oxime]	100
COC(=O)c1ccc2c(c1)c(-c1c(F)cccc1F)nc1c(NC3CCN(S(C)(=O)=O)CC3)n[nH]c12 [Example 8, Methyl 5-(2,6-difluorophenyl)-3-{[1-(methylsulphonyl)piperidin-4-yl]amino}-1H-pyrazolo[4,3-c]isoquinoline-7-carboxylate]	7280
CS(=O)(=O)N1CCC(Nc2n[nH]c3c2nc(-c2c(F)cccc2F)c2cc(C(N)=S)ccc23)CC1 [Example 9, 5-(2,6-difluorophenyl)-3-{[1-(methylsulphonyl)piperidin-4-yl]amino}-1H-pyrazolo[4,3-c]isoquinoline-7-carbothioamide]	597
CS(=O)(=O)N1CCC(Nc2n[nH]c3c2nc(-c2c(F)cccc2F)c2cc(F)ccc23)CC1 [Example 6, 5-(2,6-difluorophenyl)-7-fluoro-3-{[1-(methylsulphonyl)piperidin-4-yl]amino}-1H-pyrazolo[4,3-c]isoquinoline]	890
NC(=O)c1ccc2c(c1)c(-c1c(F)cccc1F)nc1c(NC3CCN(S(=O)(=O)C(F)(F)F)CC3)n[nH]c12 [Example 4, 5-(2,6-difluorophenyl)-3-{[1-(trifluoromethanesulphonyl)piperidin-4-yl]amino}-1H-pyrazolo[4,3-c]isoquinoline-7-carboxamide]	789
C=Cc1ccc2c(c1)c(-c1c(F)cccc1F)nc1c(NC3CCN(S(C)(=O)=O)CC3)n[nH]c12 [Example 5, 5-(2,6-difluorophenyl)-3-{[1-(methylsulphonyl)piperidin-4-yl]amino}-7-vinyl-1H-pyrazolo[4,3-c]isoquinoline]	2580
CS(=O)(=O)N1CCC(Nc2n[nH]c3c2nc(-c2c(F)cccc2F)c2cc(C(N)=O)ccc23)CC1 [Example 1, 5-(2,6-difluorophenyl)-3-{[1-(methylsulphonyl)piperidin-4-yl]amino}-1H-pyrazolo[4,3-c]isoquinoline-7-carboxamide]	259
C#Cc1ccc2c(c1)c(-c1c(F)cccc1F)nc1c(NC3CCN(S(C)(=O)=O)CC3)n[nH]c12 [Example 7, 5-(2,6-difluorophenyl)-3-{[1-(methylsulphonyl)piperidin-4-yl]amino}-7-ethynyl-1H-pyrazolo[4,3-c]isoquinoline]	1500

Results, then the molecule that gave them:

IC50 [nM]	Compound
413	NC(=O)c1ccc2c(c1)c(-c1c(F)cccc1F)nc1c(NC3CCN(S(=O)(=O)C4CC4)CC3)n[nH]c12 [Example 14, 5-(2,6-difluorophenyl)-3-{[1-(cyclopropylsulphonyl)piperidin-4-yl]amino}-1H-pyrazolo[4,3-c]isoquinoline-7-carboxamide]
554	CCS(=O)(=O)N1CCC(Nc2n[nH]c3c2nc(-c2c(F)cccc2F)c2cc(C(N)=O)ccc23)CC1 [Example 18, 5-(2,6-difluorophenyl)-3-{[1-(ethylsulphonyl)piperidin-4-yl]amino}-1H-pyrazolo[4,3-c]isoquinolin-7-carboxamide]
2280	CS(=O)(=O)N1CCC(Nc2n[nH]c3c2nc(-c2c(F)cccc2F)c2cc(-c4cn[nH]n4)ccc23)CC1 [Example 25, 5-(2,6-difluorophenyl)-N-[1-(methylsulphonyl)piperidin-4-yl]-7-(2H-1,2,3-triazol-4-yl)-1H-pyrazolo[4,3-c]isoquinolin-3-amine]
488	CS(=O)(=O)N1CCC(Nc2n[nH]c3c2nc(-c2c(F)cccc2F)c2cc(C=O)ccc23)CC1 [Example 15, 5-(2,6-difluorophenyl)-3-{[1-(methylsulphonyl)piperidin-4-yl]amino}-1H-pyrazolo[4,3-c]isoquinoline-7-carbaldehyde]
456	NS(=O)(=O)N1CCC(Nc2n[nH]c3c2nc(-c2c(F)cccc2F)c2cc(CO)ccc23)CC1 [Example 27, 4-{[5-(2,6-difluorophenyl)-7-(hydroxymethyl)-1H-pyrazolo[4,3-c]isoquinolin-3-yl]amino}piperidine-1-sulphonamide]
2350	CS(=O)(=O)N1CCC(Nc2n[nH]c3c2nc(-c2c(F)cccc2F)c2cc(C(=N)NO)ccc23)CC1 [Example 16, 5-(2,6-difluorophenyl)-N-hydroxy-3-{[1-(methylsulphonyl)piperidin-4-yl]amino}-1H-pyrazolo[4,3-c]isoquinoline-7-carboximidamide]
899	CS(=O)(=O)N1CCC(Nc2n[nH]c3c2nc(-c2c(F)cccc2F)c2cc(C#N)ccc23)CC1 [Example 12, 5-(2,6-difluorophenyl)-3-{[1-(methylsulphonyl)piperidin-4-yl]amino}-1H-pyrazolo[4,3-c]isoquinoline-7-carbonitrile]
451	CCS(=O)(=O)N1CCC(Nc2n[nH]c3c2nc(-c2c(F)cccc2F)c2cc(C=O)ccc23)CC1 [Example 19, 5-(2,6-difluorophenyl)-3-{[1-(ethylsulphonyl)piperidin-4-yl]amino}-1H-pyrazolo[4,3-c]isoquinoline-7-carbaldehyde]
138	CCS(=O)(=O)N1CCC(Nc2n[nH]c3c2nc(-c2c(F)cccc2F)c2cc(C=NO)ccc23)CC1 [Example 20, 5-(2,6-difluorophenyl)-3-{[1-(ethylsulphonyl)piperidin-4-yl]amino}-1H-pyrazolo[4,3-c]isoquinoline-7-carbaldehyde oxime]
230	NS(=O)(=O)N1CCC(Nc2n[nH]c3c2nc(-c2c(F)cccc2F)c2cc(F)ccc23)CC1 [Example 28, 4-{[5-(2,6-difluorophenyl)-7-fluoro-1H-pyrazolo[4,3-c]isoquinolin-3-yl]amino}piperidine-1-sulphonamide]
2120	CS(=O)(=O)N1CCC(Nc2n[nH]c3c2nc(-c2c(F)cccc2F)c2cc(-c4cn[nH]c4)ccc23)CC1 [Example 24, 5-(2,6-difluorophenyl)-N-[1-(methylsulphonyl)piperidin-4-yl]-7-(1H-pyrazol-4-yl)-1H-pyrazolo[4,3-c]isoquinolin-3-amine]
909	N#Cc1ccc2c(c1)c(-c1c(F)cccc1F)nc1c(NC3CCN(S(=O)(=O)C4CC4)CC3)n[nH]c12 [Example 11, 5-(2,6-difluorophenyl)-3-{[1-(cyclopropylsulphonyl)piperidin-4-yl]amino}-1H-pyrazolo[4,3-c]isoquinoline-7-carbonitrile]
1660	N#Cc1ccc2c(c1)c(-c1c(F)cccc1F)nc1c(NC3CCN(S(N)(=O)=O)CC3)n[nH]c12 [Example 26, 4-{[7-cyano-5-(2,6-difluorophenyl)-1H-pyrazolo[4,3-c]isoquinolin-3-yl]amino}piperidine-1-sulphonamide]
411	NC(=O)c1ccc2c(c1)c(-c1c(F)cccc1F)nc1c(NC3CCN(S(N)(=O)=O)CC3)[nH]nc12 [Example 22, 5-(2,6-difluorophenyl)-3-[(1-sulphamoylpiperidin-4-yl)amino]-2H-pyrazolo[4,3-c]isoquinoline-7-carboxamide]
954	CCS(=O)(=O)N1CCC(Nc2n[nH]c3c2nc(-c2c(F)cccc2F)c2cc(C#N)ccc23)CC1 [Example 13, 5-(2,6-difluorophenyl)-3-([1-(ethylsulphonyl)piperidin-4-yl]amino}-1H-pyrazolo[4,3-c]isoquinoline-7-carbonitrile]

same assay, conditions: total treatment 96 h

Compound	IC50 [nM]
NS(=O)(=O)N1CCC(Nc2n[nH]c3c2nc(-c2c(F)cccc2F)c2cc(C=NO)ccc23)CC1 (mixture of isomers) [Example 23, 4-({5-(2,6-difluorophenyl)-7-[(E/Z)-(hydroxyimino)methyl]-1H-pyrazolo[4,3-c]isoquinolin-3-yl}amino)piperidine-1-sulphonamide]	126
CS(=O)(=O)N1CCC(Nc2n[nH]c3c2nc(-c2c(F)cccc2F)c2cc(CO)ccc23)CC1 [Example 3]	248
CCS(=O)(=O)N1CCC(Nc2n[nH]c3c2nc(-c2c(F)cccc2F)c2cc(CO)ccc23)CC1 [Example 21]	338
CS(=O)(=O)N1CCC(Nc2n[nH]c3c2nc(-c2c(F)cccc2F)c2ccccc23)CC1 [Example 10]	2040
CS(=O)(=O)N1CCC(Nc2n[nH]c3c2nc(-c2c(F)cccc2F)c2cc(CF)ccc23)CC1 [Example 17]	263
